PubChem BioAssay AID248 (DTP/NCI, 2004)
Values joined by “and” are separate entries in the source; they are usually repeats but may differ in a detail not shown here. Equal entries are not always repeated. Inconclusive results and toxic doses are left out.

Tested on: L1210 leukemia ip in BDF1 mice, survival T/C
Assay: NCI In Vivo Anticancer Drug Screen. Data for tumor model L1210 Leukemia (intraperitoneal) in B6D2F1 (BDF1) mice
Settings: endpoint: mean survival time, higher = longer survival
Procedure, shortened: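 Antitumor effect is assessed in tumor-bearing animals. Survival in the compound arm is compared with a vehicle-dosed control arm and expressed as their quotient.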

[1] = dose: 100.0 mg/kg/injection, schedule: Q01DX009 (ip), vehicle: Klucel (hydroxypropylcellulose) (HPC)
[2] = dose: 200.0 mg/kg/injection, schedule: Q01DX009 (ip), vehicle: Klucel (hydroxypropylcellulose) (HPC)
[3] = dose: 400.0 mg/kg/injection, schedule: Q01DX009 (ip), vehicle: Klucel (hydroxypropylcellulose) (HPC)
[4] = dose: 50.0 mg/kg/injection, schedule: Q01DX009 (ip), vehicle: saline with Tween-80
[5] = dose: 100.0 mg/kg/injection, schedule: Q01DX009 (ip), vehicle: saline with Tween-80
[6] = dose: 200.0 mg/kg/injection, schedule: Q01DX009 (ip), vehicle: saline with Tween-80
[7] = dose: 100.0 mg/kg/injection, schedule: Q04DX002 (ip), vehicle: Klucel (hydroxypropylcellulose) (HPC)
[8] = dose: 200.0 mg/kg/injection, schedule: Q04DX002 (ip), vehicle: Klucel (hydroxypropylcellulose) (HPC)
[9] = dose: 400.0 mg/kg/injection, schedule: Q04DX002 (ip), vehicle: Klucel (hydroxypropylcellulose) (HPC)
[10] = dose: 100.0 mg/kg/injection, schedule: Q04DX003 (ip), vehicle: Klucel (hydroxypropylcellulose) (HPC)
[11] = dose: 200.0 mg/kg/injection, schedule: Q04DX003 (ip), vehicle: Klucel (hydroxypropylcellulose) (HPC)
[12] = dose: 400.0 mg/kg/injection, schedule: Q04DX003 (ip), vehicle: Klucel (hydroxypropylcellulose) (HPC)
[13] = dose: 400.0 mg/kg/injection, schedule: Q01DX009 (ip), vehicle: saline with Tween-80
[14] = dose: 100.0 mg/kg/injection, schedule: Q04DX003 (ip), vehicle: saline
[15] = dose: 200.0 mg/kg/injection, schedule: Q04DX003 (ip), vehicle: saline
[16] = dose: 400.0 mg/kg/injection, schedule: Q04DX003 (ip), vehicle: saline
[17] = dose: 25.0 mg/kg/injection, schedule: Q01DX001 (ip), vehicle: saline with Tween-80
[18] = dose: 100.0 mg/kg/injection, schedule: Q01DX001 (ip), vehicle: saline
[19] = dose: 200.0 mg/kg/injection, schedule: Q01DX001 (ip), vehicle: saline
[20] = dose: 400.0 mg/kg/injection, schedule: Q01DX001 (ip), vehicle: saline
[21] = dose: 100.0 mg/kg/injection, schedule: Q01DX009 (ip), vehicle: saline
[22] = dose: 200.0 mg/kg/injection, schedule: Q01DX009 (ip), vehicle: saline
[23] = dose: 100.0 mg/kg/injection, schedule: Q04DX003 (ip), vehicle: acetone
[24] = dose: 200.0 mg/kg/injection, schedule: Q04DX003 (ip), vehicle: acetone
[25] = dose: 400.0 mg/kg/injection, schedule: Q04DX003 (ip), vehicle: acetone
[26] = dose: 50.0 mg/kg/injection, schedule: Q01DX009 (ip), vehicle: saline

## CC(Cl)CN(CC(C)Cl)C(=O)Oc1ccccc1[N+](=O)[O-] (centres undefined)
[1]
  T/C: 93 % of control
[2]
  T/C: 104 % of control
[3]
  T/C: 93 % of control

## O=[N+]([O-])CC1c2ccccc2Nc2ccccc21
[4]
  T/C: 93 % of control
[5]
  T/C: 107 % of control
[6]
  T/C: 100 % of control

## COc1cccc(NC(=O)c2cccc([N+](=O)[O-])c2)c1
[7]
  T/C: 94 % of control
[8]
  T/C: 98 % of control
[9]
  T/C: 91 % of control

## CCCCCCCCCCCC1=C(O)C(=O)C(CC2=C(O)C(=O)C(CCCCCCCCCCC)=C(O)C2=O)=C(O)C1=O
dose: 200.0 mg/kg/injection, schedule: Q01DX001 (ip), vehicle: carboxymethylcellulose (CMC)
  T/C: 100 % of control
dose: 400.0 mg/kg/injection, schedule: Q01DX001 (ip), vehicle: carboxymethylcellulose (CMC)
  T/C: 103 % of control

## CC(=O)Nc1ccc(OCCOC(=O)Nc2ccc(C)c([N+](=O)[O-])c2)cc1
[4]
  T/C: 87 % of control
[6]
  T/C: 87 % of control

## COc1cc(C=O)c(Oc2cc(C=O)ccc2OC)cc1OC
[10]
  T/C: 97 % of control
[11]
  T/C: 100 % of control
[12]
  T/C: 103 % of control

## COc1cc(/C=N/NC(=O)CNC(=O)c2ccccc2)ccc1O
[5]
  T/C: 102 % of control
[6]
  T/C: 102 % of control
[13]
  T/C: 101 % of control

## CCCc1nc2ccccc2c(=O)n1/N=C/c1ccc(Cl)cc1Cl
[7]
  T/C: 96 % of control
[8]
  T/C: 92 % of control
[9]
  T/C: 103 % of control

## Cc1ccc(S(=O)(=O)NC(=O)NC(C)C(=O)O)cc1 (centres undefined)
[14]
  T/C: 102 % of control
[15]
  T/C: 97 % of control
[16]
  T/C: 96 % of control

## CC(=O)N(C)c1ccc(NC(=O)C2CCCCC2C(=O)O)cc1 (centres undefined)
[1]
  T/C: 98 % of control
[2]
  T/C: 95 % of control
[3]
  T/C: 93 % of control

## C=C(CSCC(N)=O)c1ccccc1
[7]
  T/C: 97 % of control
[8]
  T/C: 97 % of control
[9]
  T/C: 94 % of control

## COC(=O)[C@@H]1C2C=CC(C2)[C@@H]1C(=O)OC
[5]
  T/C: 101 % of control
[6]
  T/C: 104 % of control
[13]
  T/C: 104 % of control

## CC12CCC(O)(CC1)CC2=O
dose: 75.0 mg/kg/injection, schedule: Q04DX002 (ip), vehicle: saline
  T/C: 95 % of control
dose: 150.0 mg/kg/injection, schedule: Q04DX002 (ip), vehicle: saline
  T/C: 95 % of control
dose: 300.0 mg/kg/injection, schedule: Q04DX002 (ip), vehicle: saline
  T/C: 103 % of control

## CNC(=O)Nc1ccc(Cl)cc1C
[1]
  T/C: 98 % of control
[10]
  T/C: 96 % of control
[2]
  T/C: 102 % of control
[11]
  T/C: 96 % of control
[12]
  T/C: 106 % of control

## O=C(O)CCC(=O)c1cccc([N+](=O)[O-])c1
[4]
  T/C: 103 % of control
[1]
  T/C: 95 % of control
[5]
  T/C: 107 % of control
[10]
  T/C: 91 % of control
[2]
  T/C: 103 % of control
[6]
  T/C: 87 % of control
[11]
  T/C: 94 % of control
[12]
  T/C: 94 % of control

## O=C1C(Cl)=C(NC2CCCC2)C(=O)c2ccccc21
dose: 12.5 mg/kg/injection, schedule: Q01DX001 (ip), vehicle: saline with Tween-80
  T/C: 94 % of control
[17]
  T/C: 94 % of control

## CC12C=CC(CC1)C2O (centres undefined)
[5]
  T/C: 105 % of control
dose: 100.0 mg/kg/injection, schedule: Q04DX003 (ip), vehicle: saline with Tween-80
  T/C: 100 % of control
[6]
  T/C: 96 % of control
dose: 200.0 mg/kg/injection, schedule: Q04DX003 (ip), vehicle: saline with Tween-80
  T/C: 96 % of control
dose: 400.0 mg/kg/injection, schedule: Q04DX003 (ip), vehicle: saline with Tween-80
  T/C: 98 % of control

## O=c1[nH]nc(-c2ccccc2)c2ccccc12
dose: 50.0 mg/kg/injection, schedule: Q01DX001 (ip), vehicle: saline
  T/C: 100 % of control
[18]
  T/C: 97 % of control
[19]
  T/C: 93 % of control
[20]
  T/C: 100 % of control

## COC(=O)C(=NO)C(=O)OC
[21]
  T/C: 98 % of control
[14]
  T/C: 93 % of control
[22]
  T/C: 106 % of control
[15]
  T/C: 95 % of control
dose: 400.0 mg/kg/injection, schedule: Q01DX009 (ip), vehicle: saline
  T/C: 106 % of control
[16]
  T/C: 96 % of control

## CCN(CCO)CCNc1ccc(CO)c2sc3cc(Cl)ccc3c(=O)c12
dose: 50.0 mg/kg/injection, schedule: Q01DX009 (ip), vehicle: Klucel (hydroxypropylcellulose) (HPC)
  T/C: 91 % of control
[1]
  T/C: 96 % of control
[2]
  T/C: 91 % of control

## NC(=O)N/N=C\c1ccc(O)cn1
[23]
  T/C: 98 % of control
[24]
  T/C: 93 % of control
[25]
  T/C: 96 % of control

## CCCC(=O)OCC(=O)c1ccc(-c2ccccc2)cc1
[18]
  T/C: 96 % of control
[19]
  T/C: 94 % of control
[20]
  T/C: 94 % of control

## O=C(/C=C/c1ccc2c(c1)OCO2)c1ccc2ccccc2c1
dose: 100.0 mg/kg/injection, schedule: Q04DX002 (ip), vehicle: gum acacia
  T/C: 103 % of control
dose: 200.0 mg/kg/injection, schedule: Q04DX002 (ip), vehicle: gum acacia
  T/C: 96 % of control
dose: 400.0 mg/kg/injection, schedule: Q04DX002 (ip), vehicle: gum acacia
  T/C: 92 % of control

## c1ccc(C2(c3ccccc3)CC([P+](c3ccccc3)(c3ccccc3)c3ccccc3)=NN2)cc1
[18]
  T/C: 108 % of control
[19]
  T/C: 115 % of control

## CCCCCCCCCCC/C=N/NC(=O)c1ccc[n+](C)c1
[26]
  T/C: 108 % of control
[21]
  T/C: 108 % of control
[22]
  T/C: 110 % of control

## O=C(Nc1cc([N+](=O)[O-])ccc1Cl)c1ccc(F)cc1
[7]
  T/C: 102 % of control
[8]
  T/C: 98 % of control
[9]
  T/C: 102 % of control

## O=C1CCCN1C[CH2][Sn]([c]1ccccc1)([c]1ccccc1)[c]1ccccc1
[26]
  T/C: 104 % of control
[21]
  T/C: 96 % of control
[22]
  T/C: 107 % of control

## CCOC(=O)c1ccc(NC(=O)Nc2cccc(Cl)c2)cc1
dose: 3.0 mg/kg/injection, schedule: Q01DX009 (ip), vehicle: Klucel (hydroxypropylcellulose) (HPC)
  T/C: 94 % of control
dose: 6.0 mg/kg/injection, schedule: Q01DX009 (ip), vehicle: Klucel (hydroxypropylcellulose) (HPC)
  T/C: 107 % of control
dose: 12.0 mg/kg/injection, schedule: Q01DX009 (ip), vehicle: Klucel (hydroxypropylcellulose) (HPC)
  T/C: 94 % of control
dose: 25.0 mg/kg/injection, schedule: Q01DX009 (ip), vehicle: Klucel (hydroxypropylcellulose) (HPC)
  T/C: 101 % of control
[1]
  T/C: 93 % of control

## C#CCN1CCCC1
dose: 12.5 mg/kg/injection, schedule: Q04DX003 (ip), vehicle: saline
  T/C: 92 % of control
dose: 25.0 mg/kg/injection, schedule: Q04DX003 (ip), vehicle: saline
  T/C: 92 % of control
dose: 50.0 mg/kg/injection, schedule: Q04DX003 (ip), vehicle: saline
  T/C: 95 % of control

## O=C(Nc1ccc(Cl)cc1C(F)(F)F)OCCOc1ccc([N+](=O)[O-])cc1
[5]
  T/C: 91 % of control
[6]
  T/C: 94 % of control
[13]
  T/C: 95 % of control

## COC(=O)c1cn[nH]c1/N=N/N(C)CCO
[18]
  T/C: 113 % of control
[14]
  T/C: 119 % of control
[19]
  T/C: 117 % of control
[22]
  T/C: 163 % of control
[15]
  T/C: 119 % of control
[20]
  T/C: 107 % of control
[16]
  T/C: 119 % of control

## CC1(CO)C2CCC(CC2)C1CO (centres undefined)
[23]
  T/C: 98 % of control
[24]
  T/C: 96 % of control
[25]
  T/C: 93 % of control

## CCCCCCCCC1N(C)CCCN1C
dose: 12.5 mg/kg/injection, schedule: Q01DX009 (ip), vehicle: saline with Tween-80
  T/C: 98 % of control
[17]
  T/C: 105 % of control
dose: 25.0 mg/kg/injection, schedule: Q01DX009 (ip), vehicle: saline with Tween-80
  T/C: 86 % of control
dose: 50.0 mg/kg/injection, schedule: Q01DX001 (ip), vehicle: saline with Tween-80
  T/C: 105 % of control
[4]
  T/C: 98 % of control and 101 % of control
dose: 100.0 mg/kg/injection, schedule: Q01DX001 (ip), vehicle: saline with Tween-80
  T/C: 97 % of control and 101 % of control

## C=COC(=O)NC(Cc1ccccc1)C(=O)O (centres undefined)
[18]
  T/C: 97 % of control
[19]
  T/C: 89 % of control

## CN(C)c1ccc(C=Nc2ccccc2O)cc1
[18]
  T/C: 107 % of control
[19]
  T/C: 96 % of control
[20]
  T/C: 97 % of control

## Cc1cc(O)cc(=O)[nH]1
[18]
  T/C: 97 % of control
[19]
  T/C: 100 % of control
